These results are taken from patent US20230117034A1, “PYRAZOLOTRIAZINES” (Bayer Aktiengesellschaft, priority 2019, published 2023).

The target of assay [1] is T1, CDK12 (nuclear staining in CAL-120 cells) (Homo sapiens, UniProt Q9NYV4).
T1 construct: endogenous in cells; host or cells: CAL-120 human breast cancer cells (DSMZ ACC 459)
Briefly: CDK12 nuclear protein level: immunofluorescence/high content analysis (CAL-120). Type of assay: cell-based. Conditions: for DC50: CAL-120 cells, 24 h, immunofluorescence, 50% reduction of nuclear CDK12 staining intensity, median, read-out: CDK12 degradation IF, DC50- [mol/l] (median); for (IC50 CDK12 high ATP) to (Degradation DC50 CDK12) ratio: ratio of IC50 CDK12 high ATP kinase assay to DC50 CDK12 degradation (IF, CAL-120). The method, then:
In the context of the present invention, the term “DC50 CDK12” refers to the DC50 values obtained according to the assay described in this section (7) herein below, i.e. the DC50 values for the degradation of CDK12.
Plates are then incubated for 24 h at 37° C. in an humidified incubator and fixed with 4% PFA for 10 min. […] Nuclear and cytoplasmic intensity as well as the nuclear/cytoplasmic intensity ratio is determined by automated image analysis using custom generated scripts (MetaXpress). Data is then transferred to Genedata Screener software, normalized to DMSO and control and DC50 values (degrading concentration to achieve 50% reduction of nuclear CDK12 staining intensity relative to controls) are reported.

Assay [2] addresses T2, CDK9/CycT1 (Homo sapiens, UniProt P50750).
T2 construct: Recombinant full-length His-tagged human CDK9 and CycT1; purchased Life Technologies PV4131; host or cells: insect cells
Put plainly: CDK9/CycT1 high ATP kinase assay (TR-FRET, 2 mM ATP). Type of assay: biochemical. Particulars: 2 mM ATP (high ATP); median; read-out: CDK9/CyclinT1, 2 mM ATP (high ATP), IC50 (median). The method, then:
CDK9/CycT1-inhibitory activity of compounds of the present invention at a high ATP concentration after preincubation of enzyme and test compounds was quantified employing the CDK9/CycT1 TR-FRET assay as described in the following paragraphs.
Recombinant full-length His-tagged human CDK9 and CycT1, expressed in insect cells and purified by Ni-NTA affinity chromatography, were purchased from Life Technologies (Cat. No PV4131). As substrate for the kinase reaction biotinylated peptide biotin-Ttds-[…] (C-terminus in amide form) was used which can be purchased e.g. form the company JERINI peptide technologies (Berlin, Germany).
For the assay 50 nanoL of a 100 fold concentrated solution of the test compound in DMSO was pipetted into either a black low volume 384 well microtiter plate or a black 1536 well microtiter plate (both Greiner Bio-One, Frickenhausen, Germany), 2 microL of a solution of CDK9/CycT1 in aqueous assay buffer [50 millimol/L Tris/HCl pH 8.0, 10 millimol/L MgCl2, 1.0 millimol/L dithiothreitol, 0.1 millimol/L sodium ortho-vanadate, 0.01% (v/v) Nonidet-P40 (Sigma)] were added and the mixture was incubated for 15 min at 22° C. to allow pre-binding of the test compounds to the enzyme before the start of the kinase reaction. […] The concentration of CDK9/CycT1 was adjusted depending of the activity of the enzyme lot and was chosen appropriate to have the assay in the linear range, typical concentrations were in the range of 0.5 microg/ml.
The resulting mixture was incubated 1 h at 22° C. to allow the formation of complex between the phosphorylated biotinylated peptide and the detection reagents. Subsequently the amount of phosphorylated substrate was evaluated by measurement of the resonance energy transfer from the Eu-chelate to the streptavidine-XL. Therefore, the fluorescence emissions at 620 nm and 665 nm after excitation at 350 nm was measured in a TR-FRET reader, e.g. a Pherastar (BMG Labtechnologies, Offenburg, Germany) or a Viewlux (Perkin-Elmer). The ratio of the emissions at 665 nm and at […] was taken as the measure for the amount of phosphorylated substrate.

In assay [3] the test system is BRCA1 mRNA expression in MDA-MB-231 cells. Briefly: qRT-PCR assay: BRCA1 mRNA expression in MDA-MB-231. Type of assay: cell-based, human. Particulars: Homo sapiens, MDA-MB-231, Inhibition of BRCA1 mRNA expression in MDA-MB-231 cells; median; read-out: RTqPCR-MDA-MB-231, IC50, BRCA1 (median). The method, then: 3. qRT-PCR Assay: BRCA, ATR, MCL1 in MDA-MB-231, CAL-120
Tissue cultured human MDA-MB-231 human breast cancer cells were plated in 500 microL per well at 200,000 cells/well in a 24 well microtiter plate. After 24 h, the cells were exposed continuously for 24 h to test substances (substances were added with Tecan HP 0300 Dispenser). RNA was prepared using Qiagen RNeasy MiniKit (#74106), RNA was quantified using a NanoDrop Equipment, and 600 nano gamms of RNA was coverted to cDNA using a SuperScript VILO kit (Thermofisher #11755050) followed by qPCR amplification. BRCA1 and ATR gene expression was measured by RT-qPCR and normalised to GAPDH housekeeping gene expression. qPCR primer sets have been purchased from Thermo Fisher Scientific/Applied Biosystems: BRCA1, #Hs 01556193; ATR, #Hs 00992123; GAPDH, #Hs 03929097.

pIC50: −log10 of the molar value. A value given as a limit tells only on which side of the number the result lay.

T1 sequence (Q9NYV4 whole entry): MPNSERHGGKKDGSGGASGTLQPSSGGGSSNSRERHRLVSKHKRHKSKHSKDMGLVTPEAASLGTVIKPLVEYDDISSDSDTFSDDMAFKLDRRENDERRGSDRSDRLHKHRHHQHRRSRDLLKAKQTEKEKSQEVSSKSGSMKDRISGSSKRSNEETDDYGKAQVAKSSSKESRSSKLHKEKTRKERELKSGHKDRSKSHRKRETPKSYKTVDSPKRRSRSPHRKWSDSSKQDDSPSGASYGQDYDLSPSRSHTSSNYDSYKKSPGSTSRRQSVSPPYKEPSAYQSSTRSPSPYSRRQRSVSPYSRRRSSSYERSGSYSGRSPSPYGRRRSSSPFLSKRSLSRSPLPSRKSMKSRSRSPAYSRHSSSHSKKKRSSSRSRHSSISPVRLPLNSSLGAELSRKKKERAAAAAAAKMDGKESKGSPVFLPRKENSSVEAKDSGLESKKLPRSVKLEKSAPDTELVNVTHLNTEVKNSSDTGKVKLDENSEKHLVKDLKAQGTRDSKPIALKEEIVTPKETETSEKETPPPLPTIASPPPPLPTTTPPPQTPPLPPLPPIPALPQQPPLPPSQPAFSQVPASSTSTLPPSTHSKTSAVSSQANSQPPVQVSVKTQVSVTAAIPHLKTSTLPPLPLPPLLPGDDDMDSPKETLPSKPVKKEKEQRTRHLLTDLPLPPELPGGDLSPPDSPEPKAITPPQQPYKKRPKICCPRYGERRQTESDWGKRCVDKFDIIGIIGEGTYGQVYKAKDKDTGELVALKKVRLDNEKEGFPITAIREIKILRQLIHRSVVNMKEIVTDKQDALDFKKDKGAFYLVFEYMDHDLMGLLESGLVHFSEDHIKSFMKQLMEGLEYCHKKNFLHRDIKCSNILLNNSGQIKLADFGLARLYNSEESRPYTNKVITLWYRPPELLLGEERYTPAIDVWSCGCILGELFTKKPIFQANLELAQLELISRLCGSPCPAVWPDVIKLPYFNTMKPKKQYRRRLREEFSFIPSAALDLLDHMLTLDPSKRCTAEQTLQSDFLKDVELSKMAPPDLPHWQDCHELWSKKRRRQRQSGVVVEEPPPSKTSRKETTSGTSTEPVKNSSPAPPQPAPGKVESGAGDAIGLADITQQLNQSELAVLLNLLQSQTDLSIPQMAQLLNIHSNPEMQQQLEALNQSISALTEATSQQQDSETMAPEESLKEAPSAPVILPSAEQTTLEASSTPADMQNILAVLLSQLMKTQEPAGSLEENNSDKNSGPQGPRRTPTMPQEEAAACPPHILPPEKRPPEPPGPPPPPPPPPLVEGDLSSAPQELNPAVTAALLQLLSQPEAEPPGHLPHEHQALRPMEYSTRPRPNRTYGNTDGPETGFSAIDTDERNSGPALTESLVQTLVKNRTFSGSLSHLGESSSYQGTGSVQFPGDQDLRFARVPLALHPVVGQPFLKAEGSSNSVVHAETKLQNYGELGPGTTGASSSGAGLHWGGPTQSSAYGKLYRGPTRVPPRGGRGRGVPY
T1 sequence (O75909 whole entry partner): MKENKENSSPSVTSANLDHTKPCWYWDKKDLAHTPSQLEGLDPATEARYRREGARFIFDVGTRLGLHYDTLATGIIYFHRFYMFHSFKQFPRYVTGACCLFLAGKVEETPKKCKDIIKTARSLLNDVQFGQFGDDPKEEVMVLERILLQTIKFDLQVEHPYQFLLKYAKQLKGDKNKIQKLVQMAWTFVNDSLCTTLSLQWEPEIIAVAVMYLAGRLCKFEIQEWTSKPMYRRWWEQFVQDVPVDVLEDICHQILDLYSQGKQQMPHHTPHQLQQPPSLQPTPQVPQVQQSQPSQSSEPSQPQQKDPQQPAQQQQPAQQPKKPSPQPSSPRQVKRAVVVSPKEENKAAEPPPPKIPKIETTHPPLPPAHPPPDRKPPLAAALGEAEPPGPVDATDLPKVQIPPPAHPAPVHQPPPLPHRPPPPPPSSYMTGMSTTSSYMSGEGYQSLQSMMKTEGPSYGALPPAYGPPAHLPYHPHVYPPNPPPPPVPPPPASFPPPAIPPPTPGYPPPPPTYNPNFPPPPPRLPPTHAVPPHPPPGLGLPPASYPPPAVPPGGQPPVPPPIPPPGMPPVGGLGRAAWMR
T2 sequence (P50750 whole entry): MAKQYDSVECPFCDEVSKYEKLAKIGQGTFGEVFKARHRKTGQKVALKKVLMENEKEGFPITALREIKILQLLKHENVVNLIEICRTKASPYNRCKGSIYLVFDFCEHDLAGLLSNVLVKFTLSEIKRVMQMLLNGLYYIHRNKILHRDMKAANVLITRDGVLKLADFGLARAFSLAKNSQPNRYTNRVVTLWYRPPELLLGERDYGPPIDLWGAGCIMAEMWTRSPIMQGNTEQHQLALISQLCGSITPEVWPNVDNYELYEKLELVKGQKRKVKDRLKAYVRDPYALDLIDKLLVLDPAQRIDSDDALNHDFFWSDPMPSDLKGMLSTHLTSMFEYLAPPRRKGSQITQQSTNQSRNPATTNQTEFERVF
T2 sequence (O60563 whole entry partner): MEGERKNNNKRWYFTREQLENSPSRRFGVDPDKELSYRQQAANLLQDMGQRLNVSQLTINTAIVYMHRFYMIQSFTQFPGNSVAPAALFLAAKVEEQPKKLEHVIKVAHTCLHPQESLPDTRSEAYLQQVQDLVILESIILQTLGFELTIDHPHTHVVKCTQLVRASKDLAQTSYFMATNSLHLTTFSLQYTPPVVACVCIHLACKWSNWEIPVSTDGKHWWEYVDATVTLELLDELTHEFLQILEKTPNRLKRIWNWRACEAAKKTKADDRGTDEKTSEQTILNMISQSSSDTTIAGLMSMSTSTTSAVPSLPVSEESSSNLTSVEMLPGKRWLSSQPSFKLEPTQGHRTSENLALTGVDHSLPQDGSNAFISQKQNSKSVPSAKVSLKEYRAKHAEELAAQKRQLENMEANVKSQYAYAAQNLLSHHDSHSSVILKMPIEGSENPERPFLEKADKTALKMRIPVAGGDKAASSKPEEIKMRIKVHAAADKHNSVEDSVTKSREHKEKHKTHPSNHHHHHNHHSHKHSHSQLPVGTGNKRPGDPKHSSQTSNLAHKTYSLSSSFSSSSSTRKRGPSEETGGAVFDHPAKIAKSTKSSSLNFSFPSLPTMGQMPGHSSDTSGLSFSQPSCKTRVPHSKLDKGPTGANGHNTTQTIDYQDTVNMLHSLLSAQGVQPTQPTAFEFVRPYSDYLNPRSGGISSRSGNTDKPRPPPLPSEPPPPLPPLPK

In the case of `CN1CCN(c2nc(NCc3nc4ccccc4[nH]3)n3ncc(Br)c3n2)C(CO)C1` (centres unmarked) [Example 155, [1-[4-(1H-benzimidazol-2-ylmethylamino)-8-bromo-pyrazolo[1,5-a][1,3,5]triazin-2-yl]-4-methyl-piperazin-2-yl]methanol], in assay [1], the DC50 was 47.2 nM and the “(IC50 CDK12 high ATP) to (Degradation DC50 CDK12) ratio” value is 79. In assay [2], the pIC50 was under 4.70.
On the same counts, the results for `FC(F)(F)CN1CCN(c2nc(NCc3nc4ccccc4[nH]3)n3ncc(Br)c3n2)CC1` [Example 139, N-[(1H-benzimidazol-2-yl)methyl]-8-bromo-2-[4-(2,2,2-trifluoroethyl)piperazin-1-yl]pyrazolo[1,5-a][1,3,5]triazin-4-amine] are 110 nM, 140 and under 4.70.
Consider `CN1CCN(c2nc(NCc3nnc(-c4ccccc4)[nH]3)n3ncc(Br)c3n2)CC1=O` [Example 121, 4-(8-bromo-4-{[(5-phenyl-4H-1,2,4-triazol-3-yl)methyl]amino}pyrazolo[1,5-a][1,3,5]triazin-2-yl)-1-methylpiperazin-2-one], for which the DC50 in assay [1] worked out at 43.5 nM. For the same compound, the “(IC50 CDK12 high ATP) to (Degradation DC50 CDK12) ratio” value in assay [1] was 172. In addition, the pIC50 in assay [3] is 6.46; in assay [2], 5.00.
On to `NCCc1cccc2[nH]c(CNc3nc(N4CCOCC4)nc4c(Br)cnn34)nc12` [Example 112, N-{[7-(2-aminoethyl)-1H-benzimidazol-2-yl]methyl}-8-bromo-2-(morpholin-4-yl)pyrazolo[1,5-a][1,3,5]triazin-4-amine], for which the DC50 in assay [1] was 50 nM. The “(IC50 CDK12 high ATP) to (Degradation DC50 CDK12) ratio” value in assay [1] came out at 134. Also, the pIC50 was 7.63 in assay [3] and under 4.70 in assay [2].
The corresponding values for `Fc1ccccc1-c1cnn2c(NCc3nc4ccccc4[nH]3)nc(N3CCOCC3)nc12` [Example 95, N-[(1H-benzimidazol-2-yl)methyl]-8-(2-fluorophenyl)-2-(morpholin-4-yl)pyrazolo[1,5-a][1,3,5]triazin-4-amine] are 34.3 nM, over 584, 6.83 and under 4.70.
As to `O=S1(=O)CCN(c2nc(NCc3nc4ccccc4[nH]3)n3ncc(Br)c3n2)CC1` [Example 166, 4-(4-{[(1H-benzimidazol-2-yl)methyl]amino}-8-bromopyrazolo[1,5-a][1,3,5]triazin-2-yl)-1 lambda^6-thiomorpholine-1,1-dione], in assay [1], the DC50 worked out at 3.39 nM. Also, the “(IC50 CDK12 high ATP) to (Degradation DC50 CDK12) ratio” value in assay [1] was 1800. The pIC50 in assay [3] was 7.34; in assay [2], under 4.70.
For the compound `NCCCc1cccc2[nH]c(CNc3nc(N4CCOCC4)nc4c(Br)cnn34)nc12.O=CO` [Example 114, formic acid-N-{[4-(3-aminopropyl)-1H-benzimidazol-2-yl]methyl}-8-bromo-2-(morpholin-4-yl)pyrazolo[1,5-a][1,3,5]triazin-4-amine (1/1)], in assay [1], the DC50 worked out at 38.8 nM and the “(IC50 CDK12 high ATP) to (Degradation DC50 CDK12) ratio” value was 210. Moreover, the pIC50 in assay [2] was under 4.70.
For `Clc1cccc(-c2cnn3c(NCc4nc5ccccc5[nH]4)nc(N4CCOCC4)nc23)c1` [Example 107, N-[(1H-benzimidazol-2-yl)methyl]-8-(3-chlorophenyl)-2-(morpholin-4-yl)pyrazolo[1,5-a][1,3,5]triazin-4-amine], in assay [1], the DC50 is 57.7 nM and the “(IC50 CDK12 high ATP) to (Degradation DC50 CDK12) ratio” value is reported as over 347. Moreover, in assay [3], the pIC50 is 6.82. Also, in assay [2], the pIC50 was under 4.70.
Turning to `CC(C)c1cnn2c(NCc3nc4ccccc4[nH]3)nc(N3CCOC[C@H]3C)nc12` [Example 7, N-[(1H-benzimidazol-2-yl)methyl]-2-[(3R)-3-methylmorpholin-4-yl]-8-(propan-2-yl)pyrazolo[1,5-a][1,3,5]triazin-4-amine], the DC50 in assay [1] is 63.6 nM. Besides, the “(IC50 CDK12 high ATP) to (Degradation DC50 CDK12) ratio” value in assay [1] was 161. Moreover, the pIC50 in assay [3] is 6.69; in assay [2], under 4.70.
As for `CC(=O)NCCCc1cccc2[nH]c(CNc3nc(N4CCOCC4)nc4c(Br)cnn34)nc12.O=CO` [Example 115, formic acid-N-{3-[2-({[8-bromo-2-(morpholin-4-yl)pyrazolo[1,5-a][1,3,5]triazin-4-yl]amino}methyl)-1H-benzimidazol-4-yl]propyl}acetamide (1/1)], in assay [1], the DC50 came out at 45.3 nM and the “(IC50 CDK12 high ATP) to (Degradation DC50 CDK12) ratio” value was determined as 256. The pIC50 in assay [2] was under 4.70.
Consider `CC1(C)CN(c2nc(NCc3nnc(-c4ccccc4)[nH]3)n3ncc(C4CC4)c3n2)CCO1` [Example 94, 8-cyclopropyl-2-(2,2-dimethylmorpholin-4-yl)-N-[(5-phenyl-4H-1,2,4-triazol-3-yl)methyl]pyrazolo[1,5-a][1,3,5]triazin-4-amine], for which, in assay [1], the DC50 stood at 25 nM and the “(IC50 CDK12 high ATP) to (Degradation DC50 CDK12) ratio” value was found to be 352. Further, the pIC50 in assay [3] was 6.65. In addition, the pIC50 in assay [2] was 4.89.
For the compound `CN1CCN(c2nc(NCc3nc4ccccc4[nH]3)n3ncc(Br)c3n2)CC1=O` [Example 131, 4-(4-{[(1H-benzimidazol-2-yl)methyl]amino}-8-bromopyrazolo[1,5-a][1,3,5]triazin-2-yl)-1-methylpiperazin-2-one], in assay [1], the DC50 was 122 nM and the “(IC50 CDK12 high ATP) to (Degradation DC50 CDK12) ratio” value is given as 91. The pIC50 in assay [2] was under 4.70.
In the case of `OCC1CCN1c1nc(NCc2nc3ccccc3[nH]2)n2ncc(Br)c2n1` (centres unmarked) [Example 147, [1-[4-(1H-benzimidazol-2-ylmethylamino)-8-bromo-pyrazolo[1,5-a][1,3,5]triazin-2-yl]azetidin-2-yl]methanol], the DC50 in assay [1] was 13.9 nM. Also, in assay [1], the “(IC50 CDK12 high ATP) to (Degradation DC50 CDK12) ratio” value is recorded as 359. Also, the pIC50 in assay [3] is 7.12; in assay [2], under 4.70.
For the compound `C[C@@H]1CCCCN1c1nc(NCc2nc3ccccc3[nH]2)n2ncc(Br)c2n1` [Example 140, N-[(1H-benzimidazol-2-yl)methyl]-8-bromo-2-[(2R)-2-methylpiperidin-1-yl]pyrazolo[1,5-a][1,3,5]triazin-4-amine], in assay [1], the DC50 came out at 58.3 nM and the “(IC50 CDK12 high ATP) to (Degradation DC50 CDK12) ratio” value was 140. In addition, the pIC50 in assay [2] was under 4.70.
Turning to `Brc1cnn2c(NCc3nc4ccccc4[nH]3)nc(N3CCN(C4CC4)CC3)nc12` [Example 138, N-[(1H-benzimidazol-2-yl)methyl]-8-bromo-2-(4-cyclopropylpiperazin-1-yl)pyrazolo[1,5-a][1,3,5]triazin-4-amine], in assay [1], the DC50 came out at 76 nM and the “(IC50 CDK12 high ATP) to (Degradation DC50 CDK12) ratio” value is recorded as over 263. Moreover, the pIC50 in assay [2] was under 4.70.
Regarding `Brc1cnn2c(NCc3nc4ccccc4[nH]3)nc(N3CCC3)nc12` [Example 143, 2-(azetidin-1-yl)-N-[(1H-benzimidazol-2-yl)methyl]-8-bromopyrazolo[1,5-a][1,3,5]triazin-4-amine], in assay [1], the DC50 was found to be 30.9 nM and the “(IC50 CDK12 high ATP) to (Degradation DC50 CDK12) ratio” value was over 646. The pIC50 in assay [2] was under 4.70.
